These results are taken from patent US20250064941A1, “SIGLEC LIGANDS, CONJUGATES, AND METHODS OF USE THEREOF” (Osprey Biopharmaceuticals, Inc., priority 2023, published 2025).

Each structure is given as a SMILES string. Where only a bound is given, the exact number is not on record here.

Experiment [1] addresses cynomolgus Siglec-2/CD22 (Macaca fascicularis, UniProt A0A2K5WCZ6). The experiment in a line: biochemical. The class given is binding. The note with it: SPR, steady-state analysis; read-out: Affinity cyno CD22. In outline: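 Compound binding measured by steady-state SPR analysis, 120 s dissociation, in HEPES-NaCl-Tween buffer pH 7.5 containing 1% DMSO, DMSO solvent-corrected. Surface: cyno CD22, sialic acids first stripped by SialoExo for 4 h at 37° C., then amine-coupled onto CM5.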

Experiment [2] addresses T1, human Siglec-2/CD22 protein (Homo sapiens, UniProt P20273).
T1 construct: purchased Acro Biosystems SI2-H82E3
T1 sequence (P20273 20-847): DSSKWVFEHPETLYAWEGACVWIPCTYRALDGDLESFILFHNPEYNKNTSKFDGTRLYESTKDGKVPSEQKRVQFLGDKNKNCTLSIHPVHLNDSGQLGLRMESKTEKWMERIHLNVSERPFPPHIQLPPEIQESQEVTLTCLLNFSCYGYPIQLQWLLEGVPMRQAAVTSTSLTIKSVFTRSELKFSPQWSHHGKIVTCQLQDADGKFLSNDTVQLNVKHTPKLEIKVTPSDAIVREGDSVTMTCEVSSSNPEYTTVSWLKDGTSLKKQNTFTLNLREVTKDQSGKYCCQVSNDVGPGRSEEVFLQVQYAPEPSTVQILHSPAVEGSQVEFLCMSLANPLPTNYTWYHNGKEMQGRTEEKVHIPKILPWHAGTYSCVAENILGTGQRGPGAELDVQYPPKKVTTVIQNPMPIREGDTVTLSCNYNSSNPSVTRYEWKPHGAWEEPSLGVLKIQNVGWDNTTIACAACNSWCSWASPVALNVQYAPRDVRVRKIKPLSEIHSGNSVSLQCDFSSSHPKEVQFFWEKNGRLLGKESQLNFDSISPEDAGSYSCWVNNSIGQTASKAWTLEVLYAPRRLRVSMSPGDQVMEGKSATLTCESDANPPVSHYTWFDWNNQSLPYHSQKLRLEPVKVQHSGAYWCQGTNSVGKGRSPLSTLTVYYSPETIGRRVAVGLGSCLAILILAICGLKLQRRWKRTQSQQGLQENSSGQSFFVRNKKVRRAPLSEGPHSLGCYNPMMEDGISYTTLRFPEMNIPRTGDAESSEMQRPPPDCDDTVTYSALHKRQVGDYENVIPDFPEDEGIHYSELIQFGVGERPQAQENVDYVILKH
Briefly: SPR binding affinity to human CD22. The note with it: steady-state analysis. In outline: (§1)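 Native sialic acid residues are removed from the receptor enzymatically (4 hours at 37° C.) prior to streptavidin capture of the biotinylated protein. Ligand compounds then flow over in HEPES-buffered saline, pH 7.5, containing 0.05% Tween-20 and 1% DMSO, and binding is evaluated at steady state.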

For experiment [3], the target named is T2, mouse Siglec-2-Fc-Avi (CD22) (Mus musculus, UniProt P35329).
T2 construct: made in house
T2 sequence (P35329 22-708 limits assumed): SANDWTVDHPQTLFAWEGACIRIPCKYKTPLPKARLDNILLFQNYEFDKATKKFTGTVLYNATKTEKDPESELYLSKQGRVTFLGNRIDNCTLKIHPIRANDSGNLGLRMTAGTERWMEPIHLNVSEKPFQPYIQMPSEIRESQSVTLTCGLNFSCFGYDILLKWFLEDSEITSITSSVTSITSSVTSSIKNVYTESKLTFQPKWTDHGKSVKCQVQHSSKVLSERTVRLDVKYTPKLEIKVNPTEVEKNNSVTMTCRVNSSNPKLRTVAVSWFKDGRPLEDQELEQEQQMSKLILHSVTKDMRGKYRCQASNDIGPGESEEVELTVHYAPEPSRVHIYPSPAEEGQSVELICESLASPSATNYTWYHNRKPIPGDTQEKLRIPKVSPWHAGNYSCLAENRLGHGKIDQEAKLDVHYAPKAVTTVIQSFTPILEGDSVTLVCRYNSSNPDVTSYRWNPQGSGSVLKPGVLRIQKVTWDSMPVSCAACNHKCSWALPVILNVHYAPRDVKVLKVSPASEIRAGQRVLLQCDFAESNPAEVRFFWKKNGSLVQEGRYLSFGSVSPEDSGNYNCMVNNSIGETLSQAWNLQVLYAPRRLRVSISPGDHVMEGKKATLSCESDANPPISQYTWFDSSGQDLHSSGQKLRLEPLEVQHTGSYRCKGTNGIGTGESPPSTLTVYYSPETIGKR
The experiment in a line: SPR binding affinity to mouse CD22. The note with it: steady-state analysis. The essentials:
as §1

cynomolgus Siglec-2/CD22, sequence (A0A2K5WCZ6 entry or part of it): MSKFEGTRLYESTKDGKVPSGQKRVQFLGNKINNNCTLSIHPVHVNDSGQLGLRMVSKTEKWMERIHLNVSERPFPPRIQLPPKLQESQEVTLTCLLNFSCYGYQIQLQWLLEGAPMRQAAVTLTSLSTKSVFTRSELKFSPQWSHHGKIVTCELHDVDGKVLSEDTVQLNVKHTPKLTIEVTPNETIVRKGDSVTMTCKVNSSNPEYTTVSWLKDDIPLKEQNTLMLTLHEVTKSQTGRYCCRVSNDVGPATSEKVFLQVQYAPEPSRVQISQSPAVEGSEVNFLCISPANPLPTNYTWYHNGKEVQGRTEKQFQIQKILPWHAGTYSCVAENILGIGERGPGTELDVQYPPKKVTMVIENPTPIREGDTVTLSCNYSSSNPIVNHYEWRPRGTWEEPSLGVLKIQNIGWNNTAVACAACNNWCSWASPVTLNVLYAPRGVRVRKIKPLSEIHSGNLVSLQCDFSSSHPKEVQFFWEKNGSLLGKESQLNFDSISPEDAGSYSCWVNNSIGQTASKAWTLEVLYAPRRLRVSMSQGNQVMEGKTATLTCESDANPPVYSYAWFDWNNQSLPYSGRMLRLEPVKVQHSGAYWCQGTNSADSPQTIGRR

`C#CCOCCCCCCO[C@]1(C(=O)O)C[C@H](O)[C@@H](NC(=O)C(N)=O)[C@H]([C@H](O)[C@H](O)CNC(=O)Cc2ccc(Cl)cc2)O1` [Compound 223, (2R,4S,5R,6R)-5-(2-amino-2-oxoacetamido)-6-((1R,2R)-3-(2-(4-chlorophenyl)acetamido)-1,2-dihydroxypropyl)-4-hydroxy-2-((6-(prop-2-yn-1-yloxy)hexyl)oxy)tetrahydro-2H-pyran-2-carboxylic acid]: the Kd is 1000 to 10000 nM in experiment [1], under 1000 nM in experiment [2] and 1000 to 10000 nM in experiment [3].

With `C#CCOc1ccc(CO[C@]2(C(=O)O)C[C@H](O)[C@@H](NC(=O)CO)[C@H]([C@H](O)[C@H](O)CNC(=O)Cc3ccc(O)cc3)O2)cc1` [Compound 146, (2R,4S,5R,6R)-6-((1R,2R)-1,2-dihydroxy-3-(2-(4-hydroxyphenyl)acetamido)propyl)-4-hydroxy-5-(2-hydroxyacetamido)-2-((4-(prop-2-yn-1-yloxy)benzyl)oxy)tetrahydro-2H-pyran-2-carboxylic acid], the Kd in experiment [1] is under 1000 nM; in experiment [2] it was 1000 to 10000 nM; in experiment [3], 1000 to 10000 nM.

With `C#CCOCCOCCO[C@]1(C(=O)O)C[C@H](O)[C@@H](NC(=O)CO)[C@H]([C@H](O)[C@H](O)CNC(=O)Cc2ccc(-c3ccccc3)c(O)c2)O1` [Compound 66, (2R,4S,5R,6R)-6-((1R,2R)-1,2-dihydroxy-3-(2-(2-hydroxy-[1,1′-biphenyl]-4-yl)acetamido)propyl)-4-hydroxy-5-(2-hydroxyacetamido)-2-(2-(2-(prop-2-yn-1-yloxy)ethoxy)ethoxy)tetrahydro-2H-pyran-2-carboxylic acid], the results for the Kd in experiment [1], in experiment [2] and in experiment [3] were over 10000 nM, 1000 to 10000 nM and over 10000 nM, respectively.

Regarding `C#CCNc1c(NCCCCCCO[C@]2(C(=O)O)C[C@H](O)[C@@H](NC(=O)CO)[C@H]([C@H](O)[C@H](O)CNC(=O)Cc3ccc(C(F)F)cc3)O2)c(=O)c1=O` [Compound 220, (2R,4S,5R,6R)-6-((1R,2R)-3-(2-(4-(difluoromethyl)phenyl)acetamido)-1,2-dihydroxypropyl)-2-((6-((3,4-dioxo-2-(prop-2-yn-1-ylamino)cyclobut-1-en-1-yl)amino)hexyl)oxy)-4-hydroxy-5-(2-hydroxyacetamido)tetrahydro-2H-pyran-2-carboxylic acid], the Kd in experiment [1], in experiment [2] and in experiment [3] was under 1000 nM throughout.

Take `C#CCCOc1ccc(CO[C@]2(C(=O)O)C[C@H](O)[C@@H](NC(=O)CO)[C@H]([C@H](O)[C@H](O)CNC(=O)Cc3cccc(-c4ccccc4O)c3)O2)cc1` [Compound 46, (2R,4S,5R,6R)-2-((4-(but-3-yn-1-yloxy)benzyl)oxy)-6-((1R,2R)-1,2-dihydroxy-3-(2-(2′-hydroxy-[1,1′-biphenyl]-3-yl)acetamido)propyl)-4-hydroxy-5-(2-hydroxyacetamido)tetrahydro-2H-pyran-2-carboxylic acid]: the Kd in experiment [1] is 1000 to 10000 nM; in experiment [2], under 1000 nM; in experiment [3] it was 1000 to 10000 nM.

For `C#CCOc1ccc(CO[C@]2(C(=O)O)C[C@H](O)[C@@H](NC(=O)CO)[C@H]([C@H](O)[C@H](O)CNC(=O)Cc3ccccc3F)O2)cc1` [Compound 165, (2R,4S,5R,6R)-6-((1R,2R)-3-(2-(2-fluorophenyl)acetamido)-1,2-dihydroxypropyl)-4-hydroxy-5-(2-hydroxyacetamido)-2-((4-(prop-2-yn-1-yloxy)benzyl)oxy)tetrahydro-2H-pyran-2-carboxylic acid], the Kd in experiment [1] was 1000 to 10000 nM; in experiment [2] it was under 1000 nM; in experiment [3] it was 1000 to 10000 nM.

Turning to `C#CCOCCOCCO[C@]1(C(=O)O)C[C@H](O)[C@@H](NC(=O)CO)[C@H]([C@H](O)[C@H](O)CNC(=O)Cc2ccc(-c3ccccc3)cc2O)O1` [Compound 67, (2R,4S,5R,6R)-6-((1R,2R)-1,2-dihydroxy-3-(2-(3-hydroxy-[1,1′-biphenyl]-4-yl)acetamido)propyl)-4-hydroxy-5-(2-hydroxyacetamido)-2-(2-(2-(prop-2-yn-1-yloxy)ethoxy)ethoxy)tetrahydro-2H-pyran-2-carboxylic acid], the Kd in experiment [1], in experiment [2] and in experiment [3] was 1000 to 10000 nM throughout.

Turning to `C#CCOc1ccc(CO[C@]2(C(=O)O)C[C@H](O)[C@@H](NC(=O)CO)[C@H]([C@H](O)[C@H](O)CNC(=O)Cc3cccc(F)c3)O2)cc1` [Compound 167, (2R,4S,5R,6R)-6-((1R,2R)-3-(2-(3-fluorophenyl)acetamido)-1,2-dihydroxypropyl)-4-hydroxy-5-(2-hydroxyacetamido)-2-((4-(prop-2-yn-1-yloxy)benzyl)oxy)tetrahydro-2H-pyran-2-carboxylic acid], the results for the Kd in experiment [1], in experiment [2] and in experiment [3] were 1000 to 10000 nM, under 1000 nM and 1000 to 10000 nM, respectively.

For the compound `C#CCCCCCCCCO[C@]1(C(=O)O)C[C@H](O)[C@@H](NC(=O)CO)[C@H]([C@H](O)[C@H](O)CNC(=O)Cc2ccc(Cl)cc2)O1` [Compound 109, (2R,4S,5R,6R)-6-((1R,2R)-3-(2-(4-chlorophenyl)acetamido)-1,2-dihydroxypropyl)-2-(dec-9-yn-1-yloxy)-4-hydroxy-5-(2-hydroxyacetamido)tetrahydro-2H-pyran-2-carboxylic acid], the Kd in experiment [1], in experiment [2] and in experiment [3] was under 1000 nM each time.

As to `CC(=O)NCCOCCOCCOCCOCc1cn(CCCCCCCCO[C@]2(C(=O)O)C[C@H](O)[C@@H](NC(=O)CO)[C@H]([C@H](O)[C@H](O)CNC(=O)Cc3ccc(C(F)F)cc3)O2)nn1` [Compound 259, (2R,4S,5R,6R)-6-((1R,2R)-3-(2-(4-(difluoromethyl)phenyl)acetamido)-1,2-dihydroxypropyl)-4-hydroxy-5-(2-hydroxyacetamido)-2-((8-(4-(15-oxo-2,5,8,11-tetraoxa-14-azahexadecyl)-1H-1,2,3-triazol-1-yl)octyl)oxy)tetrahydro-2H-pyran-2-carboxylic acid], the Kd in experiment [1], in experiment [2] and in experiment [3] was under 1000 nM throughout.

For `C#CCOCCOCCNc1c(NCCCCCCO[C@]2(C(=O)O)C[C@H](O)[C@@H](NC(=O)CO)[C@H]([C@H](O)[C@H](O)CNC(=O)C(F)(F)c3ccccc3)O2)c(=O)c1=O` [Compound 275, (2R,4S,5R,6R)-6-((1R,2R)-3-(2,2-difluoro-2-phenylacetamido)-1,2-dihydroxypropyl)-2-((6-((3,4-dioxo-2-((2-(2-(prop-2-yn-1-yloxy)ethoxy)ethyl)amino)cyclobut-1-en-1-yl)amino)hexyl)oxy)-4-hydroxy-5-(2-hydroxyacetamido) tetrahydro-2H-pyran-2-carboxylic acid], the Kd in experiment [1] is under 1000 nM; in experiment [2], under 1000 nM; in experiment [3] it was 1000 to 10000 nM.

Consider `C#CCNC(=O)CCOCCOCCO[C@]1(c2nn[nH]n2)C[C@H](O)[C@@H](NC(=O)CO)[C@H]([C@H](O)[C@H](O)CNC(=O)Cc2ccc(Cl)cc2)O1` [Compound 226, 3-(2-(2-(((2R,4S,5R,6R)-6-((1R,2R)-3-(2-(4-chlorophenyl)acetamido)-1,2-dihydroxypropyl)-4-hydroxy-5-(2-hydroxyacetamido)-2-(2H-tetrazol-5-yl)tetrahydro-2H-pyran-2-yl)oxy)ethoxy)ethoxy)-N-(prop-2-yn-1-yl)propanamide], for which the Kd in experiment [1], in experiment [2] and in experiment [3] was over 10000 nM throughout.
